Where a SMILES comes first, the peptide text is derived from it. Bridges are numbered along the chain shown (N, C = ends). [ ]: non-standard residue; d: D form. Pen = CC(C)(S)[C@H](N)C(=O)O; Tle = CC(C)(C)[C@H](N)C(=O)O; Nle = CCCC[C@H](N)C(=O)O; Orn = NCCC[C@H](N)C(=O)O; Dab = NCC[C@H](N)C(=O)O; Sar = CNCC(=O)O
Legend:
Type in all cases: cell-based
[1] = system: human red blood cells (hRBC); assay: Hemolysis of human red blood cells; conditions: red cells of human, 1 h, 100 μg/mL
Summary of the method: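 Hemolysis was read as supernatant absorbance at 540 nm and expressed as a percentage of Triton X-100 (2.5%) lysis. Washed human red cells (20% v/v) had been exposed to each peptide at 100 μg/mL for 1 h at 37° C.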

[2] = system: Pseudomonas aeruginosa ATCC 27853; conditions: ATCC 27853
Summary of the method: (§1)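 Read-out is the minimal inhibitory concentration in μg/mL, taken as the lowest peptide level without visible growth after 18-20 h at 35° C. Testing followed CLSI broth microdilution in cation-adjusted Mueller-Hinton II broth plus 0.002% Polysorbate 80, with roughly 10^6 CFU/mL.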

[3] = system: Acinetobacter baumannii DSM 30008; conditions: DSM 30008
Summary of the method: as §1

[4] = system: Klebsiella pneumoniae 968733; conditions: 968733
Escherichia coli 926415 = conditions: 926415
[5] = system: Klebsiella pneumoniae SSI #3010; conditions: SSI #3010
Summary of the method: as §1

[6] = system: Escherichia coli ATCC 25922; conditions: ATCC 25922
Summary of the method: as §1

[7] = system: Acinetobacter baumannii 872842; conditions: 872842

SMILES: CC(C)C[C@@H]1NC(=O)[C@@H](CC(C)C)NC(=O)[C@H](CCN)NC(=O)[C@@H](NC(=O)[C@H](CCN)NC(=O)[C@@H](NC(=O)[C@H](CCN)NC(=O)CNC(=O)[C@H](CCN)NC(=O)[C@H](Cc2ccc(O)cc2)NC(=O)[C@H]2NC(=O)[C@H](CC(C)C)NC(=O)[C@@H]3CCCN3C(=O)[C@H]3CCCN3C(=O)[C@H](CO)NC(=O)[C@@H](NC(=O)[C@@H](NC(=O)[C@H](CCN)NC(=O)[C@@H](N)Cc3c[nH]c4ccccc34)C(C)C)CSSC2(C)C)[C@@H](C)O)CCNC(=O)[C@H]([C@@H](C)O)NC(=O)[C@H](CCN)NC(=O)[C@H](CCN)NC1=O [Ex. 162] (H-W[Dab]VCS[dP]PL[Pen]Y[Dab]G[Dab]T[Dab][Dab][Dab][dL]L[Dab][Dab]T; disulfide 4-9; lactam 16-C)
- Hemolysis at 100 μg/mL [1]: <1%
- Pseudomonas aeruginosa ATCC 27853 MIC [2]: 1 µg/mL
- Acinetobacter baumannii DSM 30008 MIC [3]: 0.5 µg/mL
- Klebsiella pneumoniae 968733 MIC [4]: 2 µg/mL
- Escherichia coli 926415 MIC (Escherichia coli 926415): 0.25 µg/mL
- Klebsiella pneumoniae SSI #3010 MIC [5]: 0.25 µg/mL
- Escherichia coli ATCC 25922 MIC [6]: 0.0625 µg/mL
- Acinetobacter baumannii 872842 MIC [7]: 0.125 µg/mL

SMILES: CCCC[C@@H]1NC(=O)[C@@H]2CCCN2C(=O)[C@H]2CCCN2C(=O)[C@H](CO)NC(=O)[C@H](CO)NC(=O)[C@H](C(C)(C)C)NC(=O)[C@@H](NC(=O)[C@@H](N)Cc2c[nH]c3ccccc23)CSSC[C@@H](C(=O)N[C@H](Cc2ccc(O)cc2)C(=O)N[C@@H](CCN)C(=O)N[C@@H](CCN)C(=O)N[C@H]2CCNC(=O)[C@H]([C@@H](C)O)NC(=O)[C@H](CCN)NC(=O)[C@H](CCN)NC(=O)[C@H](CC(C)C)NC(=O)[C@@H](Cc3ccccc3)NC(=O)[C@H](CCN)NC2=O)NC(=O)[C@H](Cc2ccc(O)cc2)NC(=O)[C@H](CO)NC1=O [Ex. 109] (H-WC[Tle]SS[dP]P[Nle]SYC[dY][Dab][Dab][Dab][Dab][dF]L[Dab][Dab]T; disulfide 2-11; lactam 15-C)
- Hemolysis at 100 μg/mL [1]: <1%
- Pseudomonas aeruginosa ATCC 27853 MIC [2]: 1 µg/mL
- Acinetobacter baumannii DSM 30008 MIC [3]: 0.5 µg/mL
- Klebsiella pneumoniae 968733 MIC [4]: 1 µg/mL
- Escherichia coli 926415 MIC (Escherichia coli 926415): 0.5 µg/mL
- Klebsiella pneumoniae SSI #3010 MIC [5]: 1 µg/mL
- Escherichia coli ATCC 25922 MIC [6]: 0.25 µg/mL
- Acinetobacter baumannii 872842 MIC [7]: 0.5 µg/mL

SMILES: CC(C)C[C@@H]1NC(=O)[C@H](CO)NC(=O)[C@H](Cc2ccc(O)cc2)NC(=O)[C@@H]2CCCN2C(=O)[C@H]2CCCN2C(=O)[C@H]([C@@H](C)O)NC(=O)[C@H](C)NC(=O)[C@H](Cc2ccc(O)cc2)NC(=O)[C@@H](NC(=O)[C@@H](N)CC(C)C)CSSC[C@@H](C(=O)NCC(=O)N[C@@H](CCN)C(=O)N[C@H](C(=O)N[C@@H](CCN)C(=O)N[C@H]2CCNC(=O)[C@H]([C@@H](C)O)NC(=O)[C@H](CCN)NC(=O)[C@H](CCN)NC(=O)[C@H](CC(C)C)NC(=O)[C@@H](CC(C)C)NC(=O)[C@H](CCN)NC2=O)[C@@H](C)O)NC1=O [Ex. 158] (H-LCYAT[dP]PYSLCG[Dab]T[Dab][Dab][Dab][dL]L[Dab][Dab]T; disulfide 2-11; lactam 16-C)
- Hemolysis at 100 μg/mL [1]: <1%
- Pseudomonas aeruginosa ATCC 27853 MIC [2]: 0.5 µg/mL
- Acinetobacter baumannii DSM 30008 MIC [3]: 0.25 µg/mL
- Klebsiella pneumoniae 968733 MIC [4]: 8 µg/mL
- Escherichia coli 926415 MIC (Escherichia coli 926415): 4 µg/mL
- Klebsiella pneumoniae SSI #3010 MIC [5]: 0.125 µg/mL
- Escherichia coli ATCC 25922 MIC [6]: 0.125 µg/mL
- Acinetobacter baumannii 872842 MIC [7]: 0.25 µg/mL

SMILES: CCCC[C@@H]1NC(=O)[C@@H]2CCCN2C(=O)[C@H]2CCCN2C(=O)[C@H](CO)NC(=O)[C@H](C)NC(=O)[C@H](C(C)(C)C)NC(=O)[C@@H](NC(=O)[C@H](Cc2c[nH]c3ccccc23)NC(=O)[C@@H](N)CCN)CSSC[C@@H](C(=O)N[C@@H](CCN)C(=O)N[C@H](C(=O)N[C@@H](CCN)C(=O)N[C@H]2CCNC(=O)[C@H]([C@@H](C)O)NC(=O)[C@H](CCN)NC(=O)[C@H](CCN)NC(=O)[C@H](CC(C)C)NC(=O)[C@@H](Cc3ccccc3)NC(=O)[C@H](CCN)NC2=O)[C@@H](C)O)NC(=O)[C@H](Cc2ccc(O)cc2)NC(=O)[C@H](CO)NC1=O [Ex. 42] (H-[Dab]WC[Tle]AS[dP]P[Nle]SYC[Dab]T[Dab][Dab][Dab][dF]L[Dab][Dab]T; disulfide 3-12; lactam 16-C)
- Hemolysis at 100 μg/mL [1]: <1%
- Pseudomonas aeruginosa ATCC 27853 MIC [2]: 0.25 µg/mL
- Acinetobacter baumannii DSM 30008 MIC [3]: 0.25 µg/mL
- Klebsiella pneumoniae 968733 MIC [4]: 2 µg/mL
- Escherichia coli 926415 MIC (Escherichia coli 926415): 0.25 µg/mL
- Klebsiella pneumoniae SSI #3010 MIC [5]: 0.25 µg/mL
- Escherichia coli ATCC 25922 MIC [6]: 0.125 µg/mL
- Acinetobacter baumannii 872842 MIC [7]: 0.25 µg/mL

SMILES: CCCC[C@@H]1NC(=O)[C@@H]2CCCN2C(=O)[C@H]2CCCN2C(=O)[C@H](CO)NC(=O)[C@H](C)NC(=O)[C@H](C(C)(C)C)NC(=O)[C@@H](NC(=O)[C@H](Cc2c[nH]c3ccccc23)NC(C)=O)CSSC[C@@H](C(=O)N[C@@H](CCCN)C(=O)N[C@@H](CCN)C(=O)N[C@H]2CCNC(=O)[C@H]([C@@H](C)O)NC(=O)[C@H](CCN)NC(=O)[C@H](CCN)NC(=O)[C@H](CC(C)C)NC(=O)[C@@H](Cc3ccccc3)NC(=O)[C@H](CCN)NC2=O)NC(=O)[C@H](Cc2ccc(O)cc2)NC(=O)[C@H](CO)NC1=O [Ex. 48] (Ac-WC[Tle]AS[dP]P[Nle]SYC[Orn][Dab][Dab][Dab][dF]L[Dab][Dab]T; disulfide 2-11; lactam 14-C)
- Hemolysis at 100 μg/mL [1]: 2%
- Pseudomonas aeruginosa ATCC 27853 MIC [2]: 1 µg/mL
- Acinetobacter baumannii DSM 30008 MIC [3]: 0.5 µg/mL
- Klebsiella pneumoniae 968733 MIC [4]: 1 µg/mL
- Escherichia coli 926415 MIC (Escherichia coli 926415): 0.25 µg/mL
- Klebsiella pneumoniae SSI #3010 MIC [5]: 0.25 µg/mL
- Escherichia coli ATCC 25922 MIC [6]: 0.125 µg/mL
- Acinetobacter baumannii 872842 MIC [7]: 0.5 µg/mL

SMILES: CC(C)C[C@@H]1NC(=O)[C@@H](CC(C)C)NC(=O)[C@H](CCN)NC(=O)[C@@H](NC(=O)[C@H](CCN)NC(=O)[C@@H](NC(=O)[C@H](CCN)NC(=O)CN(C)C(=O)[C@@H]2CSSC[C@H](NC(=O)[C@@H](N)Cc3c[nH]c4ccccc34)C(=O)N[C@@H](C(C)C)C(=O)N[C@@H](C)C(=O)N[C@@H](CO)C(=O)N3CCC[C@@H]3C(=O)N3CCC[C@H]3C(=O)N[C@@H](CC(C)C)C(=O)N[C@@H](CO)C(=O)N[C@@H](Cc3ccc(O)cc3)C(=O)N2)[C@@H](C)O)CCNC(=O)[C@@H]([C@H](C)O)NC(=O)[C@H](CCN)NC(=O)[C@H](CCN)NC1=O [Ex. 178] (H-WCVAS[dP]PLSYC[Sar][Dab]T[Dab][Dab][Dab][dL]L[Dab][Dab][dT]; disulfide 2-11; lactam 16-C)
- Hemolysis at 100 μg/mL [1]: <1%
- Pseudomonas aeruginosa ATCC 27853 MIC [2]: 4 µg/mL
- Acinetobacter baumannii DSM 30008 MIC [3]: 1 µg/mL
- Klebsiella pneumoniae 968733 MIC [4]: 8 µg/mL
- Escherichia coli 926415 MIC (Escherichia coli 926415): 1 µg/mL
- Klebsiella pneumoniae SSI #3010 MIC [5]: 0.5 µg/mL
- Escherichia coli ATCC 25922 MIC [6]: 0.5 µg/mL
- Acinetobacter baumannii 872842 MIC [7]: 2 µg/mL

Source: patent US10829520B2, “Beta-hairpin peptidomimetics” (POLYPHOR AG, priority 2015, dated 2020)
